The source of these data is PubChem BioAssay AID248 (DTP/NCI, 2004).

Several values for one entry are separate records, joined by “and”; a condition that tells them apart may be missing. Equal values may be shown once. Toxic doses and inconclusive results are not listed.

This assay deals with L1210 leukemia ip in BDF1 mice, survival T/C. The experiment in a line: NCI In Vivo Anticancer Drug Screen. Data for tumor model L1210 Leukemia (intraperitoneal) in B6D2F1 (BDF1) mice. The conditions noted are these: endpoint: mean survival time, higher = longer survival. In short, it runs like this:
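In this screen, tumor-bearing mice given compound are compared to those given vehicle, and their survival values are reported as a treated-to-control quotient.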

The mark [1] stands for this setting: dose: 100.0 mg/kg/injection, schedule: Q01DX001 (ip), vehicle: Klucel (hydroxypropylcellulose) (HPC).
Setting [2] is: dose: 25.0 mg/kg/injection, schedule: Q04DX003 (ip), vehicle: Klucel (hydroxypropylcellulose) (HPC).
Setting [3] is: dose: 50.0 mg/kg/injection, schedule: Q04DX003 (ip), vehicle: Klucel (hydroxypropylcellulose) (HPC).
The mark [4] stands for this setting: dose: 100.0 mg/kg/injection, schedule: Q04DX003 (ip), vehicle: Klucel (hydroxypropylcellulose) (HPC).
Setting [5] is: dose: 25.0 mg/kg/injection, schedule: Q01DX009 (ip), vehicle: saline with Tween-80.
Where [6] appears, read: dose: 50.0 mg/kg/injection, schedule: Q04DX002 (ip), vehicle: saline.
The mark [7] stands for this setting: dose: 100.0 mg/kg/injection, schedule: Q04DX002 (ip), vehicle: saline.
Where [8] appears, read: dose: 100.0 mg/kg/injection, schedule: Q04DX002 (ip), vehicle: saline with Tween-80.
The mark [9] stands for this setting: dose: 100.0 mg/kg/injection, schedule: Q04DX003 (ip), vehicle: saline with Tween-80.
The mark [10] stands for this setting: dose: 200.0 mg/kg/injection, schedule: Q04DX002 (ip), vehicle: saline with Tween-80.
The mark [11] stands for this setting: dose: 200.0 mg/kg/injection, schedule: Q04DX003 (ip), vehicle: saline with Tween-80.
[12] abbreviates: dose: 400.0 mg/kg/injection, schedule: Q04DX002 (ip), vehicle: saline with Tween-80.
Where [13] appears, read: dose: 400.0 mg/kg/injection, schedule: Q04DX003 (ip), vehicle: saline with Tween-80.
[14] abbreviates: dose: 50.0 mg/kg/injection, schedule: Q01DX009 (ip), vehicle: saline with Tween-80.
Where [15] appears, read: dose: 100.0 mg/kg/injection, schedule: Q01DX009 (ip), vehicle: saline with Tween-80.
The mark [16] stands for this setting: dose: 200.0 mg/kg/injection, schedule: Q04DX003 (ip), vehicle: Klucel (hydroxypropylcellulose) (HPC).
Setting [17] is: dose: 200.0 mg/kg/injection, schedule: Q01DX009 (ip), vehicle: saline with Tween-80.
Setting [18] is: dose: 400.0 mg/kg/injection, schedule: Q01DX009 (ip), vehicle: saline with Tween-80.

As to `O=C(CNC1=NCCN1)Nc1ccc(NC(=O)c2ccc(C(=O)Nc3ccc(NC(=O)CNC4=NCCN4)cc3)cc2)cc1`, the T/C is 114 % of control (dose: 30.0 mg/kg/injection, schedule: Q01DX Z (ip), vehicle: water); 120 % of control (dose: 40.0 mg/kg/injection, schedule: Q01DX Z (ip), vehicle: water); 121 % of control (dose: 50.0 mg/kg/injection, schedule: Q01DX Z (ip), vehicle: water); 124 % of control (dose: 62.5 mg/kg/injection, schedule: Q01DX Z (ip), vehicle: water); 118 % of control (dose: 125.0 mg/kg/injection, schedule: Q01DX Z (ip), vehicle: water); 109 % of control (dose: 250.0 mg/kg/injection, schedule: Q01DX Z (ip), vehicle: water). Also, where the note is “dose: 500.0 mg/kg/injection, schedule: Q01DX Z (ip), vehicle: water”, the T/C is 106 % of control.

In the case of `Cn1nc(N)c2cc3c(=O)[nH]cnc3nc21`, the T/C reads like this: under setting [1], 96 % of control; (dose: 200.0 mg/kg/injection, schedule: Q01DX001 (ip), vehicle: Klucel (hydroxypropylcellulose) (HPC)) 104 % of control; (dose: 400.0 mg/kg/injection, schedule: Q01DX001 (ip), vehicle: Klucel (hydroxypropylcellulose) (HPC)) 101 % of control.

On to `COc1ccc(OC)c(NC(=O)Oc2ccccc2C(N)=O)c1`, for which the T/C was 89 % of control under setting [2]; 95 % of control under setting [3]; 94 % of control and 92 % of control under setting [4].

`Cl[CH2][Sn]([c]1ccccc1)([c]1ccccc1)[c]1ccccc1`: the T/C is, setting by setting: (dose: 6.25 mg/kg/injection, schedule: Q01DX009 (ip), vehicle: saline with Tween-80) 113 % of control; (dose: 6.25 mg/kg/injection, schedule: Q01DX009 (ip), vehicle: saline) 93 % of control; (dose: 12.5 mg/kg/injection, schedule: Q01DX009 (ip), vehicle: saline with Tween-80) 106 % of control; (dose: 12.5 mg/kg/injection, schedule: Q01DX009 (ip), vehicle: saline) 101 % of control; under setting [5], 101 % of control.

On to `O=C(Nc1cccc(O)c1)OCCCl`, for which the T/C was 105 % of control (dose: 100.0 mg/kg/injection, schedule: Q01DX001 (ip), vehicle: saline + alcohol); 102 % of control (dose: 200.0 mg/kg/injection, schedule: Q01DX001 (ip), vehicle: saline + alcohol); 92 % of control (dose: 400.0 mg/kg/injection, schedule: Q01DX001 (ip), vehicle: saline + alcohol).

Regarding `O=C1NCC2C3CCC(O3)C12` (stereo not given), the T/C runs as follows: under setting [6], 101 % of control; under setting [7], 97 % of control and 103 % of control; (dose: 200.0 mg/kg/injection, schedule: Q04DX002 (ip), vehicle: saline) 105 % of control; (dose: 400.0 mg/kg/injection, schedule: Q04DX002 (ip), vehicle: saline) 97 % of control and 92 % of control.

In the case of `O=C(O)CCCNC(=O)C(F)(F)F`, the T/C is 95 % of control and 98 % of control (dose: 100.0 mg/kg/injection, schedule: Q01DX001 (ip), vehicle: saline with Tween-80); 101 % of control and 103 % of control under setting [8]; 100 % of control under setting [9]; 95 % of control and 91 % of control (dose: 200.0 mg/kg/injection, schedule: Q01DX001 (ip), vehicle: saline with Tween-80); 95 % of control and 92 % of control under setting [10]; 95 % of control and 96 % of control under setting [11]. In addition, the T/C was 96 % of control and 92 % of control (dose: 400.0 mg/kg/injection, schedule: Q01DX001 (ip), vehicle: saline with Tween-80); 100 % of control and 108 % of control under setting [12]; 93 % of control and 100 % of control under setting [13].

As for `O=C(NO)c1cc(Br)cc(Br)c1O`, the T/C reads like this: under setting [5], 98 % of control; under setting [14], 102 % of control; under setting [15], 100 % of control; under setting [8], 93 % of control; under setting [10], 97 % of control; under setting [12], 200 % of control.

Turning to `Nc1ncnc2nc(C3OC(CO)C(O)C3O)[nH]c12` (stereo not given), the T/C was 96 % of control (dose: 100.0 mg/kg/injection, schedule: Q01DX005 (ip), vehicle: saline) and 96 % of control (dose: 200.0 mg/kg/injection, schedule: Q01DX005 (ip), vehicle: saline).

Consider `CC(N)CC12CC3CC(CC(C3)C1)C2` (stereo not given), for which the T/C is 92 % of control (dose: 25.0 mg/kg/injection, schedule: Q04DX002 (ip), vehicle: saline); 95 % of control under setting [6]; 97 % of control under setting [7].

For the molecule `Cc1ccc(NS(=O)(=O)c2ccccc2)cc1Cl`, the T/C is, setting by setting: (dose: 100.0 mg/kg/injection, schedule: Q01DX009 (ip), vehicle: Klucel (hydroxypropylcellulose) (HPC)) 106 % of control; under setting [4], 108 % of control; (dose: 200.0 mg/kg/injection, schedule: Q01DX009 (ip), vehicle: Klucel (hydroxypropylcellulose) (HPC)) 109 % of control; under setting [16], 98 % of control; (dose: 400.0 mg/kg/injection, schedule: Q01DX009 (ip), vehicle: Klucel (hydroxypropylcellulose) (HPC)) 98 % of control; (dose: 400.0 mg/kg/injection, schedule: Q04DX003 (ip), vehicle: Klucel (hydroxypropylcellulose) (HPC)) 97 % of control.

On to `Cc1ccc(CNC(=O)NCCCCCCNC(=O)NCc2ccc(C)cc2)cc1`, for which the T/C was 95 % of control (dose: 100.0 mg/kg/injection, schedule: Q01DX009 (ip), vehicle: other); 100 % of control (dose: 200.0 mg/kg/injection, schedule: Q01DX009 (ip), vehicle: other); 100 % of control (dose: 400.0 mg/kg/injection, schedule: Q01DX009 (ip), vehicle: other).

For `CC1(C)SC(C(NC(=O)COc2ccccc2)C(=O)O)NC1C(=O)O` (stereo not given), the T/C reads like this: under setting [14], 101 % of control; under setting [15], 95 % of control; under setting [17], 88 % of control.

Turning to `Nc1ncc(CO)c(N)n1`, the T/C reads like this: (dose: 25.0 mg/kg/injection, schedule: Q01DX001 (ip), vehicle: Klucel (hydroxypropylcellulose) (HPC)) 100 % of control; (dose: 50.0 mg/kg/injection, schedule: Q01DX001 (ip), vehicle: Klucel (hydroxypropylcellulose) (HPC)) 98 % of control; under setting [1], 98 % of control and 100 % of control.

As for `COc1ccccc1C(=S)N1CCCCC1`, the T/C was 97 % of control (dose: 100.0 mg/kg/injection, schedule: Q04DX003 (ip), vehicle: saline); 89 % of control (dose: 200.0 mg/kg/injection, schedule: Q04DX003 (ip), vehicle: saline); 92 % of control (dose: 400.0 mg/kg/injection, schedule: Q04DX003 (ip), vehicle: saline).

`NC(Cc1ccccc1)C(=O)O` (stereo not given): the T/C was 102 % of control (dose: 75.0 mg/kg/injection, schedule: Q01DX001 (ip), vehicle: saline with Tween-80); 93 % of control (dose: 100.0 mg/kg/injection, schedule: Q01DX001 (ip), vehicle: carboxymethylcellulose (CMC)); 102 % of control under setting [4]; 102 % of control (dose: 150.0 mg/kg/injection, schedule: Q01DX001 (ip), vehicle: saline with Tween-80); 96 % of control (dose: 200.0 mg/kg/injection, schedule: Q01DX001 (ip), vehicle: carboxymethylcellulose (CMC)); 86 % of control under setting [16]. Besides, the T/C by setting is: (dose: 300.0 mg/kg/injection, schedule: Q01DX001 (ip), vehicle: saline with Tween-80) 98 % of control; (dose: 400.0 mg/kg/injection, schedule: Q01DX001 (ip), vehicle: carboxymethylcellulose (CMC)) 93 % of control.

As for `O=C(O)/C=C/Sc1ccccc1`, the T/C under setting [2] was 104 % of control and the T/C under setting [3] was 102 % of control.

Consider `C=CC1CC1(C(=O)O)C(=O)O` (stereo not given), for which the T/C reads like this: under setting [15], 93 % of control; under setting [9], 98 % of control; under setting [17], 96 % of control; under setting [11], 98 % of control; under setting [18], 90 % of control; under setting [13], 93 % of control.

As to `CCCCCCCCCCCCCCCCCCCCCCCCC(O)C(=O)NC(CO)C(O)C(O)CCCCCCCCCCCCCC` (stereo not given), the T/C is, setting by setting: under setting [15], 88 % of control; under setting [9], 87 % of control; under setting [17], 94 % of control; under setting [11], 92 % of control; under setting [18], 88 % of control; under setting [13], 87 % of control.
